# Tests used:
# [1] = test system: rainbow trout (Oncorhynchus mykiss); experiment: Contribution of tissues to fish body burden; format: in vivo; conditions: for Contribution of Blood to the fish's body burden / Contribution of Gills to the fish's body burden / Contribution of Liver to the fish's body burden / Contribution of Mucus to the fish's body burden / Contribution of Other tissue (all apart from blood, liver, gills and skin; muscle concentration assumed) to body burden / Contribution of Skin to the fish's body burden: fraction; for % contribution to body burden, Gills / % contribution to body burden, Mucus / % contribution to body burden, Liver / % contribution to body burden, Skin / % contribution to body burden, Muscle: mean across fish, Figure 1; for % contribution to body burden, Liver / % contribution to body burden, Skin / % contribution to body burden, Muscle: Q10, Q14 maximum estimates; for % contribution to body burden, Muscle: includes all tissues not specifically analyzed
# Description: To calculate the quantity of the test chemical in the different tissues, the amount of each tissue in the fish was estimated and multiplied by the concentration in that tissue. The test chemical quantities in the different tissues were then summed to give the body burden in each fish. The total weight of the fish and the weight of the liver and gills were available from the dissection (Table S16). For skin and mucus, the estimated outer surface area of the fish was used. We note that the distinction between mucus and skin is an operational one determined by the extraction method; mucus can be viewed as a more readily extracted fraction of the test chemical residues at the fish surface. The volume of blood was taken as 0.0495 mL g^–1 fish.[30] The remaining tissue (difference between the weight of the whole fish and the weight of liver, gills, skin, and blood) was assumed to have the concentration measured in the muscle. The contribution of the different tissues to the body burden is given for each fish in Table S17, and the average contribution across all fish is plotted in Figure 1. All of the tissues, with the exception of blood, contribute at least 10% of the body burden for at least half of the test chemicals. There is no consistent negative correlation between the fraction of chemical associated with blood, muscle, and liver (tissues where the residue originates entirely from systemic uptake) and alkyl chain length (a measure of hydrophobicity). Thus, although adsorption to fish surfaces appears to play a significant role, its contribution to body burden cannot be simply predicted from surfactant hydrophobicity. In the following, we examine uptake in individual tissues.
# [2] = test system: rainbow trout (Oncorhynchus mykiss); experiment: Apparent bioconcentration factor at end of 7-day exposure; format: in vivo; conditions: end of 7-day exposure, body burden including mucus
# Experimental: Apparent BCFs (BCFapp) at the end of the 7-day exposure were calculated by dividing the surfactant body burden (including mucus) by the fish mass, and dividing this by the average measured concentration in water samples taken during the exposure phase. The BCFapp values ranged from 0.1 to 1260 (Table S18). Given the short exposure period, it is possible that the fish in this study had not approached steady state, in particular with respect to the distribution between water and internal tissues and between water and skin, and that the steady-state BCFs are higher. […] We note that some improvements in the methodology would be helpful, particularly with respect to the stability of the aqueous exposure concentration of the longest chain surfactants. Working with mixtures of analogue cationic surfactants allowed for consistent evaluation of differences in accumulation trends due to structural features.
# [3] = Table S2; cited from earlier work
smiles,measurement,setting,value
"CCCCCCCCCCCCCN [P13, tridecylamine]",Contribution of Blood to the fish's body burden,[1]; Fish #1,0.013
same,Contribution of Gills to the fish's body burden,[1]; Fish #1,0.27
same,Contribution of Liver to the fish's body burden,[1]; Fish #1,0.24
same,Contribution of Mucus to the fish's body burden,[1]; Fish #1,0.14
same,"Contribution of Other tissue (all apart from blood, liver, gills and skin; muscle concentration assumed) to body burden",[1]; Fish #1,0.17
same,Contribution of Skin to the fish's body burden,[1]; Fish #1,0.17
same,Contribution of Blood to the fish's body burden,[1]; Fish #2,0.014
same,Contribution of Gills to the fish's body burden,[1]; Fish #2,0.27
same,Contribution of Liver to the fish's body burden,[1]; Fish #2,0.23
same,Contribution of Mucus to the fish's body burden,[1]; Fish #2,0.10
same,"Contribution of Other tissue (all apart from blood, liver, gills and skin; muscle concentration assumed) to body burden",[1]; Fish #2,0.17
same,Contribution of Skin to the fish's body burden,[1]; Fish #2,0.21
same,Contribution of Blood to the fish's body burden,[1]; Fish #3,0.016
same,Contribution of Liver to the fish's body burden,[1]; Fish #3,0.16
same,Contribution of Mucus to the fish's body burden,[1]; Fish #3,0.09
same,"Contribution of Other tissue (all apart from blood, liver, gills and skin; muscle concentration assumed) to body burden",[1]; Fish #3,0.24
same,Contribution of Skin to the fish's body burden,[1]; Fish #3,0.20
same,Contribution of Blood to the fish's body burden,[1]; Fish #4,0.013
same,Contribution of Gills to the fish's body burden,[1]; Fish #4,0.35
same,Contribution of Liver to the fish's body burden,[1]; Fish #4,0.15
same,Contribution of Mucus to the fish's body burden,[1]; Fish #4,0.11
same,"Contribution of Other tissue (all apart from blood, liver, gills and skin; muscle concentration assumed) to body burden",[1]; Fish #4,0.17
same,Contribution of Skin to the fish's body burden,[1]; Fish #4,0.21
same,Contribution of Blood to the fish's body burden,[1]; Fish #5,0.013
same,Contribution of Gills to the fish's body burden,[1]; Fish #5,0.28
same,Contribution of Liver to the fish's body burden,[1]; Fish #5,0.23
same,Contribution of Mucus to the fish's body burden,[1]; Fish #5,0.09
same,"Contribution of Other tissue (all apart from blood, liver, gills and skin; muscle concentration assumed) to body burden",[1]; Fish #5,0.17
same,Contribution of Skin to the fish's body burden,[1]; Fish #5,0.23
same,Contribution of Blood to the fish's body burden,[1]; Fish #6,0.013
same,Contribution of Gills to the fish's body burden,[1]; Fish #6,0.26
same,Contribution of Liver to the fish's body burden,[1]; Fish #6,0.27
same,Contribution of Mucus to the fish's body burden,[1]; Fish #6,0.09
same,"Contribution of Other tissue (all apart from blood, liver, gills and skin; muscle concentration assumed) to body burden",[1]; Fish #6,0.17
same,Contribution of Skin to the fish's body burden,[1]; Fish #6,0.20
same,Contribution of Blood to the fish's body burden,[1]; Mean,0.014
same,Contribution of Gills to the fish's body burden,[1]; Mean,0.28
same,Contribution of Liver to the fish's body burden,[1]; Mean,0.21
same,Contribution of Mucus to the fish's body burden,[1]; Mean,0.10
same,"Contribution of Other tissue (all apart from blood, liver, gills and skin; muscle concentration assumed) to body burden",[1]; Mean,0.18
same,Contribution of Skin to the fish's body burden,[1]; Mean,0.20
same,"% contribution to body burden, Gills",[1],28%
same,"% contribution to body burden, Mucus",[1],10%
same,"% contribution to body burden, Liver",[1],21%
same,"% contribution to body burden, Skin",[1],20%
same,"% contribution to body burden, Muscle",[1],18%
same,Apparent bioconcentration factor (BCFapp),[2],490 L kg-1 wet weight
same,pKa,[3],10.5
"CCCCCCCCCN(C)C [T9, N,N-dimethylnonylamine]",Contribution of Blood to the fish's body burden,[1]; Fish #1,0.045
same,Contribution of Gills to the fish's body burden,[1]; Fish #1,0.11
same,Contribution of Liver to the fish's body burden,[1]; Fish #1,0.08
same,Contribution of Mucus to the fish's body burden,[1]; Fish #1,0.12
same,"Contribution of Other tissue (all apart from blood, liver, gills and skin; muscle concentration assumed) to body burden",[1]; Fish #1,0.35
same,Contribution of Skin to the fish's body burden,[1]; Fish #1,0.30
same,Contribution of Blood to the fish's body burden,[1]; Fish #2,0.059
same,Contribution of Gills to the fish's body burden,[1]; Fish #2,0.14
same,Contribution of Liver to the fish's body burden,[1]; Fish #2,0.08
same,Contribution of Mucus to the fish's body burden,[1]; Fish #2,0.12
same,"Contribution of Other tissue (all apart from blood, liver, gills and skin; muscle concentration assumed) to body burden",[1]; Fish #2,0.39
same,Contribution of Skin to the fish's body burden,[1]; Fish #2,0.22
same,Contribution of Blood to the fish's body burden,[1]; Fish #3,0.075
same,Contribution of Liver to the fish's body burden,[1]; Fish #3,0.11
same,Contribution of Mucus to the fish's body burden,[1]; Fish #3,0.09
same,"Contribution of Other tissue (all apart from blood, liver, gills and skin; muscle concentration assumed) to body burden",[1]; Fish #3,0.43
same,Contribution of Skin to the fish's body burden,[1]; Fish #3,0.17
same,Contribution of Blood to the fish's body burden,[1]; Fish #4,0.046
same,Contribution of Gills to the fish's body burden,[1]; Fish #4,0.15
same,Contribution of Liver to the fish's body burden,[1]; Fish #4,0.04
same,Contribution of Mucus to the fish's body burden,[1]; Fish #4,0.14
same,"Contribution of Other tissue (all apart from blood, liver, gills and skin; muscle concentration assumed) to body burden",[1]; Fish #4,0.38
same,Contribution of Skin to the fish's body burden,[1]; Fish #4,0.24
same,Contribution of Blood to the fish's body burden,[1]; Fish #5,0.056
same,Contribution of Gills to the fish's body burden,[1]; Fish #5,0.14
same,Contribution of Liver to the fish's body burden,[1]; Fish #5,0.18
same,Contribution of Mucus to the fish's body burden,[1]; Fish #5,0.08
same,"Contribution of Other tissue (all apart from blood, liver, gills and skin; muscle concentration assumed) to body burden",[1]; Fish #5,0.35
same,Contribution of Skin to the fish's body burden,[1]; Fish #5,0.19
same,Contribution of Blood to the fish's body burden,[1]; Fish #6,0.062
same,Contribution of Gills to the fish's body burden,[1]; Fish #6,0.11
same,Contribution of Liver to the fish's body burden,[1]; Fish #6,0.26
same,Contribution of Mucus to the fish's body burden,[1]; Fish #6,0.08
same,"Contribution of Other tissue (all apart from blood, liver, gills and skin; muscle concentration assumed) to body burden",[1]; Fish #6,0.33
same,Contribution of Skin to the fish's body burden,[1]; Fish #6,0.17
same,Contribution of Blood to the fish's body burden,[1]; Mean,0.057
same,Contribution of Gills to the fish's body burden,[1]; Mean,0.13
same,Contribution of Liver to the fish's body burden,[1]; Mean,0.13
same,Contribution of Mucus to the fish's body burden,[1]; Mean,0.10
same,"Contribution of Other tissue (all apart from blood, liver, gills and skin; muscle concentration assumed) to body burden",[1]; Mean,0.37
same,Contribution of Skin to the fish's body burden,[1]; Mean,0.21
same,"Share of body burden in interior tissues (blood, liver, and muscle)",[1]; in vivo,more than half
same,"% contribution to body burden, Gills",[1],13%
same,"% contribution to body burden, Mucus",[1],10%
same,"% contribution to body burden, Liver",[1],13%
same,"% contribution to body burden, Skin",[1],21%
same,"% contribution to body burden, Muscle",[1],37%
same,Apparent bioconcentration factor (BCFapp),[2],5.4 L kg-1 wet weight
same,pKa,[3],9.5
"CCCCCCCCCCCCCN(C)C [T13, N,N-dimethyltridecylamine]",Contribution of Blood to the fish's body burden,[1]; Fish #1,0.038
same,Contribution of Gills to the fish's body burden,[1]; Fish #1,0.28
same,Contribution of Liver to the fish's body burden,[1]; Fish #1,0.05
same,Contribution of Mucus to the fish's body burden,[1]; Fish #1,0.11
same,"Contribution of Other tissue (all apart from blood, liver, gills and skin; muscle concentration assumed) to body burden",[1]; Fish #1,0.36
same,Contribution of Skin to the fish's body burden,[1]; Fish #1,0.17
same,Contribution of Blood to the fish's body burden,[1]; Fish #2,0.031
same,Contribution of Gills to the fish's body burden,[1]; Fish #2,0.26
same,Contribution of Liver to the fish's body burden,[1]; Fish #2,0.09
same,Contribution of Mucus to the fish's body burden,[1]; Fish #2,0.09
same,"Contribution of Other tissue (all apart from blood, liver, gills and skin; muscle concentration assumed) to body burden",[1]; Fish #2,0.29
same,Contribution of Skin to the fish's body burden,[1]; Fish #2,0.24
same,Contribution of Blood to the fish's body burden,[1]; Fish #3,0.038
same,Contribution of Liver to the fish's body burden,[1]; Fish #3,0.11
same,Contribution of Mucus to the fish's body burden,[1]; Fish #3,0.07
same,"Contribution of Other tissue (all apart from blood, liver, gills and skin; muscle concentration assumed) to body burden",[1]; Fish #3,0.31
same,Contribution of Skin to the fish's body burden,[1]; Fish #3,0.22
same,Contribution of Blood to the fish's body burden,[1]; Fish #4,0.023
same,Contribution of Gills to the fish's body burden,[1]; Fish #4,0.22
same,Contribution of Liver to the fish's body burden,[1]; Fish #4,0.21
same,Contribution of Mucus to the fish's body burden,[1]; Fish #4,0.07
same,"Contribution of Other tissue (all apart from blood, liver, gills and skin; muscle concentration assumed) to body burden",[1]; Fish #4,0.32
same,Contribution of Skin to the fish's body burden,[1]; Fish #4,0.17
same,Contribution of Blood to the fish's body burden,[1]; Fish #5,0.025
same,Contribution of Gills to the fish's body burden,[1]; Fish #5,0.30
same,Contribution of Liver to the fish's body burden,[1]; Fish #5,0.07
same,Contribution of Mucus to the fish's body burden,[1]; Fish #5,0.09
same,"Contribution of Other tissue (all apart from blood, liver, gills and skin; muscle concentration assumed) to body burden",[1]; Fish #5,0.31
same,Contribution of Skin to the fish's body burden,[1]; Fish #5,0.21
same,Contribution of Blood to the fish's body burden,[1]; Fish #6,0.042
same,Contribution of Gills to the fish's body burden,[1]; Fish #6,0.24
same,Contribution of Liver to the fish's body burden,[1]; Fish #6,0.06
same,Contribution of Mucus to the fish's body burden,[1]; Fish #6,0.11
same,"Contribution of Other tissue (all apart from blood, liver, gills and skin; muscle concentration assumed) to body burden",[1]; Fish #6,0.29
same,Contribution of Skin to the fish's body burden,[1]; Fish #6,0.25
same,Contribution of Blood to the fish's body burden,[1]; Mean,0.033
same,Contribution of Gills to the fish's body burden,[1]; Mean,0.26
same,Contribution of Liver to the fish's body burden,[1]; Mean,0.10
same,Contribution of Mucus to the fish's body burden,[1]; Mean,0.09
same,"Contribution of Other tissue (all apart from blood, liver, gills and skin; muscle concentration assumed) to body burden",[1]; Mean,0.31
same,Contribution of Skin to the fish's body burden,[1]; Mean,0.21
same,"% contribution to body burden, Gills",[1],26%
same,"% contribution to body burden, Mucus",[1],9%
same,"% contribution to body burden, Liver",[1],10%
same,"% contribution to body burden, Skin",[1],21%
same,"% contribution to body burden, Muscle",[1],31%
same,Apparent bioconcentration factor (BCFapp),[2],510 L kg-1 wet weight
same,pKa,[3],9.5

# From article PMC7343282, “Tissue Distribution of Several Series of Cationic Surfactants in Rainbow Trout (Oncorhynchus mykiss) Following Exposure via Water” (Environmental Science & Technology, 2020)
